Results on one compound are retold here after patent US20230355647A1, “Marker for determining anti-cancer effects of mitochondrial oxidative phosphorylation pathway inhibitor” (NANJING SHIJIANG MEDICINE TECHNOLOGY CO., LTD, priority 2020, published 2023).

One assay concerns OCI-LY-19. Put plainly: Cell viability (CellTiter-Glo), OCI-LY-19. Type of assay: cell-based. As to conditions: Homo sapiens, OCI-LY19; OCI-LY-19 cell line, 3-4 days of culture. The protocol: (§1) Cell viability was detected using the Promega CellTiter-Glo kit, the kit reflected cell viability by directly measuring intracellular ATP content. The inhibitory effect (IC50 value) of Gboxin, a mitochondrial oxidative phosphorylation pathway inhibitor, on different tumor cell lines was tested in the Example. The name, source, and culture condition of each tumor cell line were as follows:
Cell line OCI-LY-19 (DSMZ, No. ACC-528) was cultured in 80-90% alpha-MEM medium containing 10-20% h.i. FBS (+P/S).
(§2) The above tumor cells were cultured in the relevant medium (+P/S), and incubated for 3 h, then the gradient diluted Gboxin was added, and IC50 (50% inhibiting concentration) was measured after 3-4 days of culture.
On the technique in general: Cellular ATP, detected with luciferase, serves as a proxy for viable cell number.

A further assay concerns G-402. As to the kind of experiment: Cell viability (CellTiter-Glo), G-402. It counts as cell-based. As to conditions: Homo sapiens; G-402 cell line, 3-4 days of culture. The protocol:
as §1
Cell line G-402 (ATCC, No. CRL-1440) was cultured in 10% fetal bovine serum-containing McCoy's 5a medium (+P/S).
as §2

In another assay the test system is Gp2D. Put plainly: Cell viability (CellTiter-Glo), Gp2D. Type of assay: cell-based. Particulars: Homo sapiens; Gp2D cell line, 3-4 days of culture. Here is the method:
as §1
Cell line Gp2D (ECACC, No. 95090714) was cultured in 10% fetal bovine serum-containing DMEM medium (+P/S).
as §2

The subject of assay [1] is NCI-H82 cell with overexpression of NNMT protein and/or knockdown of DNMT1 expression. As to the kind of experiment: Sensitivity of NCI-H82 after NNMT overexpression and/or DNMT1 knockdown, intracellular ATP detection. It counts as cell-based, human. As to conditions: FIG. 21, FIG. 22. From the text: The NCI-H82 cell overexpressing NNMT protein was obtained by inserting the NNMT gene into NCI-H82 cell using a viral vector. The expression of DNMT1 in NCI-H82 cells was knocked down using shRNA transfection. The changes in sensitivity of cells to mitochondrial oxidative phosphorylation pathway inhibitors (Gboxin, Oligomycin A) was investigated using intracellular ATP detection methods after overexpression of NNMT protein and/or knockdown of DNMT1 expression. The experiment result was shown in FIG. 21 and FIG. 22, wherein, “Vector” referred to NCI-H82 cell transfected with empty virus as control group.

For a further assay, the system named is NCI-H196. As to the kind of experiment: Cell viability (CellTiter-Glo), NCI-H196. Type of assay: cell-based. Particulars: NCI-H196 cell line, 3-4 days of culture. Here is the method: as §1
Cell line NCI-H196 (ATCC, No. CRL-5823) was cultured in 10% fetal bovine serum-containing RPMI1640 medium (+P/S).
as §2

The next assay relates to MJ. Put plainly: Cell viability (CellTiter-Glo), MJ. Type of assay: cell-based. Particulars: Homo sapiens; MJ cell line, 3-4 days of culture. Here is the method: as §1
Cell line MJ (ATCC, No. CRL-8294) was cultured 20% fetal bovine serum-containing IMDM medium (+P/S).
as §2

The subject of the next assay is U-937. As to the kind of experiment: Cell viability (CellTiter-Glo), U-937. It counts as cell-based. Particulars: Homo sapiens; U-937 cell line, 3-4 days of culture. Here is the method: as §1
Cell line U-937 (ATCC, No. CRL-1593.2) was cultured in 10% fetal bovine serum-containing RPMI1640 medium (+P/S).
as §2

For a further assay, the system named is SNU-398. As to the kind of experiment: Cell viability (CellTiter-Glo), SNU-398. It counts as cell-based. Particulars: Homo sapiens; SNU-398 cell line, 3-4 days of culture. Here is the method: as §1
Cell line SNU-398 (ATCC, No. CRL-2233) was cultured in 10% fetal bovine serum-containing RPMI1640 medium (+P/S).
as §2

The subject of a further assay is OCI-M1. Put plainly: Cell viability (CellTiter-Glo), OCI-M1. Type of assay: cell-based. Particulars: OCI-M1 cell line, 3-4 days of culture. The protocol: as §1
Cell line OCI-M1 (DSMZ, No. ACC-529) was cultured in 20% fetal bovine serum-containing IMDM medium (+P/S).
as §2

In a further assay the test system is HH. As to the kind of experiment: Cell viability (CellTiter-Glo), HH. It counts as cell-based. Particulars: Homo sapiens; HH cell line, 3-4 days of culture. The protocol: as §1
Cell line HH (ATCC, No. CRL-2105) was cultured in 10% fetal bovine serum-containing RPMI1640 medium (+P/S).
as §2

The next assay concerns SF126. Put plainly: Cell viability (CellTiter-Glo), SF126. Type of assay: cell-based. Particulars: Homo sapiens, SF-126; SF126 cell line, 3-4 days of culture. The protocol: as §1, with “follows: Cell line SF126 (JCRB, No. IFO50286) was cultured in 10% fetal bovine serum-containing EMEM medium (+P/S). […] Cell viability was detected using the Promega CellTiter-Glo kit, the kit reflected cell viability by directly measuring intracellular ATP content.” for “follows:”

Assay [2] relates to mitochondrial oxidative phosphorylation pathway. Put plainly: Oxygen consumption of NCI-H82 cell, Seahorse XFe metabolic analyzer. It counts as cell-based, human. Particulars: 2 μM inhibitor, detection within 0.5 h, compared with control group, FIG. 1 (n=3). The source says:
The oxygen was mainly consumed by mitochondrial oxidative phosphorylation pathway in the cell, thus the determination of oxygen consumption rate (OCR) of mitochondria could directly reflect the activity of mitochondrial oxidative phosphorylation pathway. The oxygen consumption of NCI-H82 cell in the presence or absence of Oligomycin A, Gboxin, S-Gboxin and IACS-010759, mitochondrial oxidative phosphorylation pathway inhibitors, was detected using Seahorse XFe metabolic analyzer in the present Example. NCI-H82 cell (ATCC, No. […] The control group in absence of mitochondrial oxidative phosphorylation pathway inhibitor was set. The detection of cell oxygen consumption was finished within 0.5 h.

Another assay deals with ACHN. Put plainly: Cell viability (CellTiter-Glo), ACHN. It counts as cell-based. Particulars: Homo sapiens; ACHN cell line, 3-4 days of culture. The protocol:
as §1
Cell line ACHN (ATCC, No. CRL-1611) was cultured in 10% fetal bovine serum-containing EMEM medium (+P/S).
as §2

The test system of another assay is NCI-H1793. As to the kind of experiment: Cell viability (CellTiter-Glo), NCI-H1793. Particulars: Homo sapiens; NCI-H1793 cell line, 3-4 days of culture. Type of assay: cell-based. The protocol:
as §1
Cell line NCI-H1793 (ATCC, No. CRL-5896) was cultured in 5% fetal bovine serum-containing HITES medium (+P/S).
as §2

A further assay has as its system G-361. As to the kind of experiment: Cell viability (CellTiter-Glo), G-361. It counts as cell-based. As to conditions: Homo sapiens; G-361 cell line, 3-4 days of culture. Here is the method:
as §1
Cell line G-361 (ATCC, No. CRL-1424) was cultured in 10% fetal bovine serum-containing McCoy's 5a medium (+P/S).
as §2

One may read the IC50 as the concentration that gives 50% inhibition. Lower therefore signals inhibition by little substance. Turning to `CCc1n(CC(=O)O[C@@H]2C[C@H](C)CC[C@H]2C(C)C)c2ccccc2[n+]1C.[Cl-]` [Gboxin], the half-inhibitory concentration (IC50) came to 2.51 µM with OCI-LY-19; 2.82 µM in the assay with G-402; 13.3 µM in the assay on Gp2D; 19.3 µM in the assay with NCI-H196; 12.9 µM with MJ; 4.06 µM in the assay on U-937. Besides, the IC50 in the assay on SNU-398 is 4.17 µM; in the assay on OCI-M1, 21.7 µM; in the assay with HH, 2.67 µM; in the assay on SF126, > 30 µM; with ACHN, 16.6 µM; with NCI-H1793 it was 16 µM. In addition, half-maximal inhibition in the assay with G-361 (IC50) was put at 3.88 µM. Moreover, the “sensitivity of NCI-H82 cell to the inhibitor” value in [1] (DNMT1 expression knocked down (sh-DNMT1 #1 or sh-DNMT1 #2) vs Vector) and in [1] (NNMT protein overexpressed alone (ov-NNMT) vs Vector) was “decreased” throughout. Further, the “sensitivity of NCI-H82 tumor cells to the inhibitor” value in assay [1] (NNMT overexpressed and DNMT1 knocked down simultaneously (ov-NNMT/sh-DNMT1 #1 and #2)) is “decreased more significantly”. Further, the “oxygen consumption of NCI-H82 cells” value in [2] is given as “significantly inhibit”.
